{"source": "patent US20100022639A1", "about": "“Methods of Inducing Weight Loss” (The Johns Hopkins University School of Medicine Licensing …, priority 2000, published 2010)", "tested_on": "feeding behavior", "test": "Food intake after ICV injection of C-75", "type": "in vivo, mice", "conditions": "ICV 2 μl at 2.5 or 5 μg/μl, food intake over 2 and 4 hours", "procedure": "This model predicts that feeding inhibition by FAS inhibitors should be attenuated by inhibitors of ACC's. To test this, mice were pretreated with the ACC inhibitor TOFA or vehicle by ICV injection and examined the ability of C-75, administered IP, to inhibit feeding. BALB/c mice were anesthetized with metofane and injected ICV with 2 μg of TOFA or DMSO vehicle. After 2 hours recovery, mice were injected IP with 15 mg C-75/kg or RPMI vehicle and monitored for total food intake over 2 hours. […] In addition, mice were anesthetized and injected ICV with 2 μl of RPMI or C-75 at 2.5 or 5 μg/μl and food intake monitored over 2 (shaded) and 4 (solid) hours. The efficacy of centrally administered TOFA argues for a central (CNS) mechanism of action. ICV administration of C-75 inhibited feeding by 82% (FIG. 5C), supporting the central target action of C-75. FIGS. 5(B) and (C) combine results from 3 experiments with N=3 for each (9 total)."}
{"smiles": "C=C1C(=O)OC(CCCCCCCC)C1C(=O)O", "note": "(stereo not shown) [C-75]", "values": [{"measurement": "inhibition of feeding by ICV administration", "result": 82, "unit": "%"}]}
